Test results: PubChem BioAssay (NCI)
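Abbreviation: GI50, concentration required for 50% inhibition of growth. TGI: concentration producing complete growth inhibition.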

Legend:
Assay in all cases: NCI anticancer screen, dose series, 384-well format
[1] = test system: SNB-75 CNS
[2] = test system: MALME-3M melanoma
[3] = test system: SF-295 CNS
[4] = test system: EKVX NSCLC
[5] = test system: UACC-62 melanoma
[6] = test system: CAKI-1 renal
[7] = test system: K-562 leukemia
[8] = test system: NCI-H226 lung
[9] = test system: HL-60(TB) leukemia
[10] = test system: HS 578T breast
[11] = test system: KM12 colon
[12] = test system: CCRF-CEM leukemia
[13] = test system: HCT-15 colon

## C[C@H](NC(=O)c1c(C(F)F)nn(C)c1Oc1cccc(C(F)(F)F)c1)c1ccc(C(=O)O)cc1
[1]
  GI50: > 100 µM
  TGI: > 100 µM
[2]
  GI50: > 100 µM
  TGI: > 100 µM
[3]
  GI50: > 100 µM
  TGI: > 100 µM
[4]
  GI50: > 100 µM
  TGI: > 100 µM
[5]
  GI50: > 100 µM
  TGI: > 100 µM
[6]
  GI50: > 100 µM
  TGI: > 100 µM
[7]
  GI50: > 100 µM
  TGI: > 100 µM
[8]
  GI50: > 100 µM
  TGI: > 100 µM
[9]
  GI50: > 100 µM
  TGI: > 100 µM
[10]
  GI50: > 100 µM
  TGI: > 100 µM
[11]
  GI50: > 100 µM
  TGI: > 100 µM
[12]
  GI50: > 100 µM
  TGI: > 100 µM
[13]
  GI50: > 100 µM
  TGI: > 100 µM
